Measured values as given in the supplement of paper PMC10307832.

Legend:
Test in all cases: relative viability (nuclei count vs DMSO), 5 days (fraction); higher = more cells survive
[1] = compound: C1CC(C2=C(C1)C3=C(N2)C=CC(=C3)Cl)C(=O)N [Selisistat] + COc1cc2c(Oc3ccc(NC(=O)C4(C(=O)Nc5ccc(F)cc5)CC4)cc3F)ccnc2cc1OCCCN1CCOCC1 [Foretinib] (partner 0.25 µM)
In short: (§1)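 Lung cancer cell lines, seeded in 1536-well plates, were treated the following day by pin tool with a single drug or with five library-drug doses (not always all listed) in √10 steps on top of a fixed anchor-drug dose. Cells were fixed and nuclei stained in one step after 5 days, and nuclei were counted. Relative viability is the nuclei count for treated wells divided by that for vehicle wells, reported as medians of duplicate plates.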

[2] = compound: C1CC(C2=C(C1)C3=C(N2)C=CC(=C3)Cl)C(=O)N [Selisistat] + Nc1ncn([C@H]2C[C@H](O)[C@@H](CO)O2)c(=O)n1 [Decitabine] (partner 2 µM)
In short: as §1

[3] = compound: c1ccc2c(CCNc3ccc(Nc4ccncc4)cc3)c[nH]c2c1 [Serdemetan] + CC1(C)CCC(c2ccc(Cl)cc2)=C(CN2CCN(c3ccc(C(=O)NS(=O)(=O)c4ccc(N[C@H](CCN5CCOCC5)CSc5ccccc5)c(S(=O)(=O)C(F)(F)F)c4)cc3)CC2)C1 [Navitoclax] (partner 0.5 µM)
In short: as §1

[4] = compound: c1ccc2c(CCNc3ccc(Nc4ccncc4)cc3)c[nH]c2c1 [Serdemetan] + Nc1ncn([C@H]2C[C@H](O)[C@@H](CO)O2)c(=O)n1 [Decitabine] (partner 2 µM)
In short: as §1

Cell Line	relative viability ([1]; first compound 0.4 µM)	relative viability ([1]; first compound 1.265 µM)	relative viability ([1]; first compound 4 µM)	relative viability ([1]; first compound 12.65 µM)	relative viability ([1]; first compound 40 µM)	relative viability ([2]; first compound 0.4 µM)	relative viability ([2]; first compound 1.265 µM)	relative viability ([2]; first compound 4 µM)	relative viability ([2]; first compound 12.65 µM)	relative viability ([2]; first compound 40 µM)	relative viability ([3]; first compound 0.04 µM)	relative viability ([3]; first compound 0.4 µM)	relative viability ([3]; first compound 1.265 µM)	relative viability ([3]; first compound 4 µM)	relative viability ([4]; first compound 0.04 µM)	relative viability ([4]; first compound 0.1265 µM)	relative viability ([4]; first compound 0.4 µM)	relative viability ([4]; first compound 1.265 µM)	relative viability ([4]; first compound 4 µM)	relative viability ([3]; first compound 0.1265 µM)
NCI-H1734	0.956	0.822	0.868	0.889	0.815	0.562	0.436	0.45	0.556	0.455	0.68	0.202	0.108	0.188	0.44	0.26	0.226	0.111	0.188	–
NCI-H1755	0.985	1.04	0.948	0.923	0.977	0.787	0.741	0.74	0.729	0.781	0.973	0.867	0.527	0.448	0.697	0.73	0.668	0.488	0.434	0.976
NCI-H1793	0.386	0.681	–	0.724	0.528	0.489	0.459	–	0.552	0.616	0.337	0.39	0.349	0.263	0.46	0.449	0.361	0.219	0.231	0.408
NCI-H1915	1.11	1.05	1.14	1.06	1.18	0.268	0.244	0.264	0.255	0.277	0.815	0.78	0.372	0.687	0.266	0.259	0.253	0.231	0.239	0.759
NCI-H1944	0.948	0.854	–	0.857	0.808	0.506	0.402	0.441	0.452	0.465	1.07	0.978	–	0.376	0.493	0.409	0.384	0.269	0.295	1.04
NCI-H1975	0.983	0.84	0.896	0.815	0.706	0.396	0.423	0.346	0.373	0.365	1.01	1.2	1.05	1.24	0.421	0.369	0.306	0.262	0.34	0.998
NCI-H1993	0.745	0.798	0.696	0.949	0.707	0.647	0.597	–	0.655	0.546	0.952	0.78	–	0.875	0.696	0.593	0.542	0.577	0.56	0.92
NCI-H2009	1.33	1.17	–	1.22	1.17	0.437	0.338	0.372	0.45	0.394	1.11	1.17	1.06	1.01	0.373	0.37	0.431	0.328	0.345	1.12
NCI-H2023	0.879	0.81	0.966	0.873	0.904	0.233	0.198	0.219	0.216	0.202	0.929	0.99	0.682	0.344	0.206	0.21	0.225	0.135	0.138	1.05
NCI-H2085	0.971	0.98	0.873	0.881	0.884	0.595	0.551	0.577	0.625	0.588	1.16	1.04	0.815	0.685	0.541	0.582	0.485	0.324	0.374	1.01
NCI-H2087	1.09	1.12	–	1.01	1.05	0.34	0.295	–	0.263	0.234	1.05	0.715	0.467	0.64	0.285	0.23	0.251	0.145	0.135	1
NCI-H2126	1.27	1.16	1.17	1.32	1.16	0.618	0.574	0.579	0.599	0.606	0.841	0.795	0.704	0.825	0.623	0.583	0.612	0.451	0.519	0.869
NCI-H2170	1.11	1	0.943	1.03	1.08	0.481	0.474	0.458	0.53	0.47	0.591	0.52	0.554	0.601	0.419	0.497	0.437	0.417	0.361	0.705
NCI-H2347	0.918	1.04	–	1.06	0.989	0.695	0.633	–	0.677	0.624	0.737	0.712	0.624	0.374	0.638	0.615	0.583	0.474	0.527	0.779
NCI-H2405	1.06	1.09	1.07	1.06	1.02	0.881	0.78	–	0.748	0.697	0.813	1.01	0.921	0.721	0.707	0.766	0.756	0.674	0.625	1.03
NCI-H3122	0.996	0.942	0.881	0.97	1.03	0.387	0.502	–	0.499	0.4	0.975	1	–	1.04	0.451	0.444	0.469	0.322	0.368	0.951
PC-3 [JPC-3]	1.07	1.04	1.01	1.07	1.06	0.834	0.837	–	0.818	0.794	0.747	–	0.76	0.762	0.901	0.844	0.854	0.847	0.742	0.713
